The values that follow come from PMC10101232, “Population pharmacokinetics of vancomycin in very low birth weight neonates” (Frontiers in Pediatrics, 2023).

Where two headings read alike, the source gives them in different places.

For data set [1] the following is noted: model from 10 VLBW neonates, 10 mg/kg every 8 h, ref Kato et al. [16]; cited from earlier work. The text has this: The most commonly used tertiary dosing references present vancomycin dosing recommendations for neonates considering only one or two of these variables. For example, Micromedex NeoFax recommends dosing based on a combination of PMA and PNA, pediatric and neonatal Lexicomp recommends two different dosing strategies, one based on a combination of PMA and PNA and the other based on a combination of GA and Scr (Table 1). As a result, the daily doses can differ widely by up to 50% between these studies. Studies have reported that the probability of achieving vancomycin therapeutic targets in neonat ... || To date, only two studies with very small sample size have evaluated the optimal vancomycin dosing in VLBW neonates ([16], [17]). Kato et al. ([16]) recommended a vancomycin dose of 10 mg/kg every 8 h as the initial dosage regimen for vancomycin in VLBW neonates. This model predicted vancomycin therapeutic target achievement in 86.7% of neonates. However, they developed their model based on data from only 10 VLBW neonates, and the simulations were not divided into categories according to Scr and PMA. The major difference between our findings and the Kato et al. model is that for most groups, e ...

Data set [2] is described as follows: Vancomycin population pharmacokinetic model (one-compartment, Monolix) from serum concentrations in VLBW neonates.
Protocol: Data were retrieved for VLBW neonates (0–30 days old) who were admitted to the NICU and received vancomycin for proven or suspected MRSA or MRCONS infections. Patients were included if they received vancomycin for more than 48 h and had at least one vancomycin serum trough concentration measurement in a steady state. The collected data included PNA, PMA, weight, Scr, vancomycin dose, frequency and concentrations. […] Subsequent dose adjustments were guided by the vancomycin trough concentrations. In King Saud University Medical City, both vancomycin peak and trough concentrations were obtained for therapeutic drug monitoring. In all other hospitals, the practice was to collect trough concentrations only. Peak samples were collected 1 h after the end of infusions, and trough concentrations were collected 30 min before the next dose in a steady state. Exclusion criteria were: renal failure, receiving hemodialysis, missing dosing information and those sampled before the steady state were excluded.
One hospital used a chemiluminescent microparticle immunoassay with an Architect i4000SR immunoassay analyzer (Abbott), two hospitals used the kinetic interaction of microparticles in solution (KIMS) with a Cobas c system (Roche/Hitachi), and three hospitals used the homogeneous particle-enhanced turbidimetric inhibition immunoassay (PETINIA) with an Alinity c analyzer (Abbott). The assay range for the Architect immunoassay is from 0.5 to 83 µg/ml, the range for the KIMS assay is 4–80 µg/ml, and the range for the PETINIA is 1.4–100 µg/ml. For the Scr assays, four centers used the Jaffe method, and two centers used the enzymatic method.
We split the data randomly into the training (70%) and validation (30%) data sets. […] Pharmacokinetic modeling was performed using the Monolix software (2020R1) with the stochastic approximation expectation maximization algorithm.
First, we developed a structural model for vancomycin. This included testing one- and two-compartment models with linear and nonlinear elimination. For the between-subject variability in pharmacokinetic parameters, we used the following lognormal distribution: pi=p.exp⁡(ηi), where pi is the individual pharmacokinetic estimate for the i^th individual, p is the median value of the pharmacokinetic parameter, and ηi is the standard deviation for the i^th individual with a mean of 0 and variance ω^2. For residual unexplained variability, we tested different statistical models, including the constant, proportional, and combined error models. As different assays were used for vancomycin, we tested having different residual variability models accordingly.
After we developed the base model, we evaluated the effect of covariates on pharmacokinetic parameters. […]
The conditions of data set [3]: cited from earlier work; for risk of nephrotoxicity: adults, ref [30].

As for `CN[C@H](CC(C)C)C(=O)N[C@H]1C(=O)N[C@@H](CC(N)=O)C(=O)N[C@H]2C(=O)N[C@H]3C(=O)N[C@H](C(=O)N[C@H](C(=O)O)c4cc(O)cc(O)c4-c4cc3ccc4O)[C@H](O)c3ccc(c(Cl)c3)Oc3cc2cc(c3O[C@@H]2O[C@H](CO)[C@@H](O)[C@H](O)[C@H]2O[C@H]2C[C@](C)(N)[C@H](O)[C@H](C)O2)Oc2ccc(cc2Cl)[C@H]1O` [vancomycin], in data set [1], the “predicted vancomycin therapeutic target achievement” value is 86.7%. Also, in data set [2] (VLBW neonate weighing 0.93 kg, PMA 26 weeks, Scr 0.6 mg/dl), the “typical Cl value” is on record as 0.09 L/h. For the same compound, the “TMA50 (PMA at which CL is 50% of the mature value)” value in data set [2] (final model) turned out to be 26.3 weeks. Besides, the “Cl (total body clearance), estimate” value in data set [2] (final population PK model, VLBW neonates, training data set N = 162) was 0.09 L/h. In data set [2] (final population PK model, VLBW neonates, training data set N = 162, typical value at 0.93 kg), the “V (volume of distribution), estimate” value was 0.81 L. The “probable vancomycin-related nephrotoxicity, neonates affected” value in data set [3] (VLBW neonates, ref Madigan et al. [41]) is reported as “two out of 57”. Moreover, the risk of nephrotoxicity entry in data set [3] (troughs >20 µg/ml) was “approximately 30%”. Also, in data set [3] (troughs between 15 and 20 µg/ml), the risk of nephrotoxicity entry was “approximately 15%”. In data set [3] (infants, ref Viel-Thériault et al. [42]), the “nephrotoxicity, patients” value is recorded as 6%. In addition, in data set [3] (neonatal intensive care unit, ref Bhargava et al. [39]), the “subjects who developed nephrotoxicity” value was “three out of 110”. In addition, in data set [3] (neonates, ref Tang et al. [43]), the “AUC0−24 cutoff as a predictor of nephrotoxicity” value is over 485 µg·h/mL and the “neonates who developed nephrotoxicity” value is reported as “seven out of 182”.
